Values quoted from earlier work as cited in US20180368457A1 (Petiva Private Limited, priority 2015, published 2018).

Tests used:
[1] = in vivo
[2] = storage temperature 25° C., relative humidity approximately 85%
[3] = intravenously administered, within 6 hours of treatment

Compound | solubility | glycemic index, in words [1] | water pick-up on storage [2] | excreted in the urine [3]
OC[C@H]1O[C@](O)(CO[C@H]2O[C@H](CO)[C@@H](O)[C@H](O)[C@H]2O)[C@@H](O)[C@@H]1O [trehalulose, 1-O-α-D-glucopyranosyl-β-D-fructofuranose] | more soluble in water than its structural isomers sucrose | less glycemic |  | 
OCC1O[C@H](OC[C@H]2O[C@](O)(CO)C(O)C2O)C(O)C(O)[C@@H]1O (stereo partly shown) [isomaltulose, Isomaltulose] |  | very low GI | No significant water pick-up | 
O=C(CO)[C@H](O)[C@H](O)[C@H](O)CO [allulose, D-Psicose] | high solubility | low glycemic index |  | approximately 98%
